# From patent US6579851B2, “Effects of glucagon-like peptide-1 (7-36) on antro-pyloro-duodenal motility” (Amylin Pharmaceuticals, Inc., priority 2000, dated 2003)
# Marks after values point to notes of the source that are not given here.
# Experiments:
# Format in all cases: in vivo, human
# [1] = Plasma glucagon immunoreactivity during intravenous GLP-1 infusion
# Method: (§1) All values were expressed as mean±SEM. […] Differences were considered significant at P<0.05.
# (§2) All studies were performed after an overnight fast.
# (§3) The plasma was stored at −20° C. until assayed.
# [2] = Plasma pancreatic polypeptide immunoreactivity during intravenous GLP-1 infusion
# Method: as §1, §2, §3
# [3] = test system: antro-duodenal motility; assay: Antro-duodenal motility by perfusion manometry; details: for Duodenal Motility Contractions: sum of three duodenal side holes; for Antral Motility Contractions: sum of two antral side holes
# Method: Inhibition of antro-duodenal activity is assessed directly by motility recordings using methods that are well known to the skilled artisan. Contractile events are analyzed with a computer and validated software (Katschinski et al., Gastroenterol. 103, 383-91 (1992)) and only peaks with amplitudes of at least 10 mmHg and a duration of at least 2 s are considered true contractions. Duodenal phase III is defined as the occurrence of regular contractions at a frequency of ≧10/min for at least 2 min in the duodenum propagated aborally.
# In one embodiment, the data are analyzed in 10-min segments separately for antrum and duodenum by summarizing (frequency, motility index) or averaging (amplitude) the values derived from, the two antral and three duodenal side holes, respectively. Motility indexes are identified as the area under the contractions and are expressed in mmHg·s·min^−1. Antral contractions are determined to be antro-pyloro-duodenally propagated waves if the onset of the pressure wave recorded in the most proximal duodenal side hole, occurs within 5 sec after the onset of a pressure wave recorded in one of the antral side holes and if both wave are registered by all side holes in between.
# as §2
# Perfusion manometry was recorded using a nine-lumen duodenal sleeve/side-hole catheter (Dentsleeve, South Australia, Australia). The manometric assembly incorporated a 4.5 cm long sleeve sensor, two antral side-holes (2 cm apart), and three duodenal side-holes (2 cm apart), beginning at the proximal and distal end of the sleeve, respectively. Two more side-holes were positioned across the sleeve spaced 1.5 cm apart. An additional lumen located 12 cm distal to the sleeve sensor was used for duodenal perfusion.
# The correct position of the duodenal probe with the sleeve array straddling the pylorus was fluoroscopically checked before start of each experiment, and monitored throughout each study by measuring the transmucosal potential difference at the distal antral and the proximal duodenal port, as previously described (Schirra et al. J Clin Invest 97, 92-103 (1996)). A difference of at least −15 mV indicated correct transpyloric position of the tube.
# The motility channels were perfused at a rate of 0.3 ml/min using a low-compliance pneumohydraulic pump (Arndorfer Medical Specialists, Greendale, Wis.). Pressures were measured by external transducers. Data were simultaneously recorded on the screen of a multichannel chart system (PC Polygraph, Synectics Medical, Stockholm, Sweden) and stored in the memory of a personal computer. Data were sampled and digitized at 8 Hz followed by digital smoothing by a factor of 2.
# [4] = intraduodenal lipid, high dose 1.2 pmol·kg−1·min−1 iv.
# [5] = intraduodenal lipid, low dose 0.4 pmol·kg−1·min−1 iv.
# [6] = intraduodenal saline, high dose 1.2 pmol·kg−1·min−1 iv.
# [7] = intraduodenal saline, low dose 0.4 pmol·kg−1·min−1 iv.
# [8] = low dose GLP-1, interdigestive, duodenal saline
smiles,measurement,setting,value
"CC[C@H](C)[C@H](NC(=O)[C@H](Cc1ccccc1)NC(=O)[C@H](CCC(=O)O)NC(=O)[C@H](CCCCN)NC(=O)[C@H](C)NC(=O)[C@H](C)NC(=O)[C@H](CCC(N)=O)NC(=O)CNC(=O)[C@H](CCC(=O)O)NC(=O)[C@H](CC(C)C)NC(=O)[C@H](Cc1ccc(O)cc1)NC(=O)[C@H](CO)NC(=O)[C@H](CO)NC(=O)[C@@H](NC(=O)[C@H](CC(=O)O)NC(=O)[C@H](CO)NC(=O)[C@@H](NC(=O)[C@H](Cc1ccccc1)NC(=O)[C@@H](NC(=O)CNC(=O)[C@H](CCC(=O)O)NC(=O)[C@H](C)NC(=O)[C@@H](N)Cc1c[nH]cn1)[C@@H](C)O)[C@@H](C)O)C(C)C)C(=O)N[C@@H](C)C(=O)N[C@@H](Cc1c[nH]c2ccccc12)C(=O)N[C@@H](CC(C)C)C(=O)N[C@H](C(=O)N[C@@H](CCCCN)C(=O)NCC(=O)N[C@@H](CCCNC(=N)N)C(N)=O)C(C)C [GLP-1, glucagon-like peptide-1(7-36)amide]",Glucagon (AUC over basal),[1]; [4],48.0 ± 33.8*‡∥ pg/ml · 60 min
same,Glucagon (AUC over basal),[1]; [5],99.7 ± 25.1*∥ pg/ml · 60 min
same,Glucagon (AUC over basal),[1]; [6],−68.6 ± 28.9 pg/ml · 60 min
same,Glucagon (AUC over basal),[1]; [7],−59.0 ± 37.1 pg/ml · 60 min
same,Pancreatic polypeptide (AUC over basal),[2]; [4],−104.2 ± 71.1 pg/ml · 60 min
same,Pancreatic polypeptide (AUC over basal),[2]; [5],7.7 ± 55.4*∥ pg/ml · 60 min
same,Pancreatic polypeptide (AUC over basal),[2]; [6],−128.9 ± 33.2 pg/ml · 60 min
same,Pancreatic polypeptide (AUC over basal),[2]; [7],−90.5 ± 32.7 pg/ml · 60 min
same,Antral Amplitude,[3]; [4],23.0 ± 2.7 mmHg
same,Antral Motility Index,[3]; [4],628 ± 249 mmHg*s/60 min
same,Duodenal Amplitude,[3]; [4],19.2 ± 3.1 mmHg
same,Duodenal Motility Index,[3]; [4],1174 ± 499 mmHg*s/60 min
same,Duodenal Motility Contractions,[3]; [4],16.6 ± 5.9 number / 60 min
same,Antral Motility Contractions,[3]; [4],9.2 ± 2.9 number / 60 min
same,Antral Amplitude,[3]; [5],23.6 ± 3.1 mmHg
same,Antral Motility Index,[3]; [5],880 ± 351 mmHg*s/60 min
same,Duodenal Amplitude,[3]; [5],26.0 ± 3.3 mmHg
same,Duodenal Motility Index,[3]; [5],2776 ± 890 mmHg*s/60 min
same,Duodenal Motility Contractions,[3]; [5],29.5 ± 5.8 number / 60 min
same,Antral Motility Contractions,[3]; [5],12.1 ± 4.1 number / 60 min
same,Antral Amplitude,[3]; [6],21.1 ± 3.1 mmHg
same,Antral Motility Index,[3]; [6],957 ± 322 mmHg*s/60 min
same,Antro-Pyloro-Duodenal Propagated Contractions,[3]; [6],0.0* number/60 min
same,Duodenal Amplitude,[3]; [6],17.5 ± 1.9 mmHg
same,Duodenal Motility Index,[3]; [6],1119 ± 226 mmHg*s/60 min
same,Duodenal Motility Contractions,[3]; [6],16.6 ± 3.9 number / 60 min
same,Antral Motility Contractions,[3]; [6],9.6 ± 2.8 number / 60 min
same,Antral Amplitude,[3]; [7],31.1 ± 3.1 mmHg
same,Antral Motility Index,[3]; [7],1478 ± 564 mmHg*s/60 min
same,Antro-Pyloro-Duodenal Propagated Contractions,[3]; [7],0.0* number/60 min
same,Duodenal Amplitude,[3]; [7],25.0 ± 2.5 mmHg
same,Duodenal Motility Index,[3]; [7],3447 ± 1624 mmHg*s/60 min
same,Duodenal Motility Contractions,[3]; [7],36.0 ± 14.7 number / 60 min
same,Antral Motility Contractions,[3]; [7],12.6 ± 2.8 number / 60 min
same,Onset of inhibition of antro-duodenal motility after starting GLP-1,[3]; [8],≤ 2 min
same,Time to nearly complete inhibition of antro-duodenal motility,[3]; [8],≤ 20 min
